Measurements published in patent US20160129089A1, “COMBINATION THERAPY” (ANTISENSE THERAPEUTICS LTD, priority 2013, published 2016).
e = 2'-O-(2-methoxyethyl) (MOE); d = 2'-deoxy (DNA)

Key:
[1] = tested on: human growth hormone receptor mRNA; test: Inhibition of human growth hormone receptor mRNA levels by antisense oligonucleotides, quantitative real-time PCR, MCF7 cells; format: cell-based; parameters: concentration or dose not given beside the values; details: averages from three experiments
Method: “Target site” indicates the first (5′-most) nucleotide number on the particular target sequence to which the oligonucleotide binds. “% Inhib” indicates the inhibitory effect on hGHR mRNA levels by quantitative real-time PCR. Data are averages from three experiments in which MCF7 cells were treated with the antisense oligonucleotides.
All oligonucelotides in Table 1 are chimeric oligonucleotides (“gapmers”), 20 nucleotides in length, composed of a central “gap” region consisting of ten 2′-deoxynucleotides, which is flanked on both sides (5′ and 3′ directions) by five-nucleotide “wings”. The wings are composed of 2′-methoxyethyl (2′-MOE) nucleotides. The internucleoside (backbone) linkages are phosphorothioate (P═S) throughout the oligonucleotide. All uracils are 5-methyluracils (^MeU). Typically, the oligonucleotide is synthesized using 2-methoxyethyl modified thymidines not 5-methyluracils. All pyrimidines are C5 methylated (i.e., U, T, C are C5 methylated).

[2] = tested on: liver IGF-I RNA; test: Monotherapy and combination mouse study: relative liver IGF-I RNA; format: in vivo, mice; details: compared to saline control; for reduction of liver IGF-I RNA: week 3, p=0.05
Excerpt: (§1) The GHr and IGF-I RNA data were statistically analysed using one-way ANOVA followed by Dunnetts test when comparing treated to saline control. The sIGF-I data were statistically analyzed using one-way […] comparisons.

[3] = tested on: serum IGF-I; test: Monotherapy and combination mouse study: serum IGF-I; format: in vivo, mice; details: for reduction of sIGF-I: week 1
Excerpt: as §1

[4] = tested on: liver GHr RNA; test: Monotherapy and combination mouse study: relative liver GHR RNA; format: in vivo, mice; details: compared to saline control; for reduction of liver GHr RNA: week 3
Excerpt: as §1

Question: For “272357 (antisense TAGGGTCCATCTTTCAAGAC; sugars from the 5' end e5 d10 e5, all phosphorothioate, methylation of C not given here) [compound 272357]”, which “% INHIB (inhibitory effect on hGHR mRNA levels)” value (shortened to “% INHIB”) [1] is on record?
Answer: 62%

Question: Which “% INHIB” value [1] does the source give for “272358 (antisense TCTCCAGATAGAATCTAAAC; sugars from the 5' end e5 d10 e5, all phosphorothioate, methylation of C not given here) [compound 272358]” here?
Answer: 53%

Question: Which “% INHIB” value [1] does the source give for “272359 (antisense TCCAAATATTCTGGTACTTT; sugars from the 5' end e5 d10 e5, all phosphorothioate, methylation of C not given here) [compound 272359]” here?
Answer: 72%

Question: Which “% INHIB” value [1] does the source give for “272360 (antisense TATTAGTTACCTTGAGGAGA; sugars from the 5' end e5 d10 e5, all phosphorothioate, methylation of C not given here) [compound 272360]” here?
Answer: 0%

Question: How did the “% INHIB” value [1] turn out when “272361 (antisense ATTTTCCTTCCTAGAAAATA; sugars from the 5' end e5 d10 e5, all phosphorothioate, methylation of C not given here) [compound 272361]” was run?
Answer: 10%

Question: How did the “reduction of liver IGF-I RNA” value ([2]; octreotide 1.25 mg/kg twice daily) turn out when C[C@@H](O)[C@@H]1NC(=O)[C@H](CCCCN)NC(=O)[C@@H](Cc2c[nH]c3ccccc23)NC(=O)[C@H](Cc2ccccc2)NC(=O)[C@@H](NC(=O)[C@H](N)Cc2ccccc2)CSSC[C@@H](C(=O)N[C@H](CO)[C@@H](C)O)NC1=O [Octreotide, reference compound] was run?
Answer: 47.7%

Question: And the “reduction of sIGF-I” value ([3]; octreotide 1.25 mg/kg twice daily, compared to baseline control levels, p<0.04)?
Answer: 15%

Question: And the “reduction of sIGF-I” value ([3]; octreotide 1.25 mg/kg twice daily, p=0.012)?
Answer: 25.1%

Question: And the “reduction of serum IGF-I” value ([3]; octreotide 1.25 mg/kg twice daily, week 3, compared to saline control, p=0.03)?
Answer: 25.2%

Question: And the “reduction of liver GHr RNA” value ([4]; octreotide 1.25 mg/kg twice daily, p=0.001)?
Answer: 82.9%

Question: How did the “reduction of liver IGF-I RNA” value ([2]; Somavert 20 mg/kg, every other day) turn out when “Somavert: current medicinal treatment for acromegaly, used as monotherapy or with a Somatostatin agonist” was run?
Answer: 43.2%

Question: And the “effect on liver IGF-I RNA” value ([2]; Somavert lower dose 5 mg/kg, every other day)?
Answer: no effect

Question: And the “increase of sIGF-I levels” value ([3]; higher Somavert dose, 1 week, patent suspects an issue with the assay)?
Answer: > 2 fold

Question: And the “reduction of liver GHr RNA” value ([4]; Somavert 20 mg/kg, every other day, p=0.01)?
Answer: 79.9%

Question: And the “increase of liver GHr RNA” value ([4]; Somavert lower dose 5 mg/kg, every other day, p=0.05)?
Answer: 23%
